Experimental data from PubChem BioAssay AID2060331 (Molecular Pharmacology Branch, DTP, NCI, 2025).

Tested on: Hs578T multi-cell spheroids, viability
Assay: Anticancer human tumor Hs578T cell line growth inhibition [IpAb];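 also: drug exposure lasted 7 days before readout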
Conditions: for IC50: curve of first compound; for viability, T/C: stronger effect = lower value
Procedure, shortened: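 Spheroids of 60% malignant cells, 25% HUVEC and 15% MSC were exposed to targeted agents combined with ipatasertib or abemaciclib. Doses started at or near clinical Cmax (10 microM when unknown) and fell in half-log steps.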

Q: What does the source list for `C=CC(=O)N1CCN(c2nc(=O)n(-c3c(C)ccnc3C(C)C)c3nc(-c4c(O)cccc4F)c(F)cc23)C(C)C1` (stereo not given) + CCN1CCN(Cc2ccc(Nc3ncc(F)c(-c4cc(F)c5nc(C)n(C(C)C)c5c4)n3)nc2)CC1?
A: IC50 (second compound 0.01 µM): > 10000 nM; IC50 (second compound 0.0316 µM): > 10000 nM; IC50 (second compound 0.1 µM): > 10000 nM; IC50 (second compound 0.316 µM): > 10000 nM; IC50 (second compound 1 µM): > 10000 nM; viability, T/C (second compound 0.01 µM, first compound 0.0316 µM): 97.5%; viability, T/C (second compound 0.01 µM, first compound 0.1 µM): 103%; viability, T/C (second compound 0.01 µM, first compound 0.316 µM): 101%; viability, T/C (second compound 0.01 µM, first compound 1 µM): 96.2%; viability, T/C (second compound 0.01 µM, first compound 3.16 µM): 98.8%; viability, T/C (second compound 0.01 µM, first compound 10 µM): 74.5%; viability, T/C (second compound 0.0316 µM, first compound 0.0316 µM): 96%; viability, T/C (second compound 0.0316 µM, first compound 0.1 µM): 97.2%; viability, T/C (second compound 0.0316 µM, first compound 0.316 µM): 100%; viability, T/C (second compound 0.0316 µM, first compound 1 µM): 96%; viability, T/C (second compound 0.0316 µM, first compound 3.16 µM): 92.3%; viability, T/C (second compound 0.0316 µM, first compound 10 µM): 76.8%; viability, T/C (second compound 0.1 µM, first compound 0.0316 µM): 92.5%; viability, T/C (second compound 0.1 µM, first compound 0.1 µM): 86.3%; viability, T/C (second compound 0.1 µM, first compound 0.316 µM): 94.1%; viability, T/C (second compound 0.1 µM, first compound 1 µM): 102%; viability, T/C (second compound 0.1 µM, first compound 3.16 µM): 92.5%; viability, T/C (second compound 0.1 µM, first compound 10 µM): 77.2%; viability, T/C (second compound 0.316 µM, first compound 0.0316 µM): 93.2%; viability, T/C (second compound 0.316 µM, first compound 0.1 µM): 95.5%; viability, T/C (second compound 0.316 µM, first compound 0.316 µM): 98%; viability, T/C (second compound 0.316 µM, first compound 1 µM): 101%; viability, T/C (second compound 0.316 µM, first compound 3.16 µM): 92.8%; viability, T/C (second compound 0.316 µM, first compound 10 µM): 77.9%; viability, T/C (second compound 1 µM, first compound 0.0316 µM): 104%; viability, T/C (second compound 1 µM, first compound 0.1 µM): 107%; viability, T/C (second compound 1 µM, first compound 0.316 µM): 112%; viability, T/C (second compound 1 µM, first compound 1 µM): 118%; viability, T/C (second compound 1 µM, first compound 3.16 µM): 101%; viability, T/C (second compound 1 µM, first compound 10 µM): 88.4%

Q: `CC(C)(C)c1cnc(CSc2cnc(NC(=O)C3CCNCC3)s2)o1` + CCN1CCN(Cc2ccc(Nc3ncc(F)c(-c4cc(F)c5nc(C)n(C(C)C)c5c4)n3)nc2)CC1 was tested. Which IC50 (second compound 0.01 µM) did it give?
A: 181 nM

Q: What about the IC50 (second compound 0.0316 µM) of the same compound?
A: 181 nM

Q: What about the IC50 (second compound 0.1 µM) of the same compound?
A: 167 nM

Q: And the IC50 (second compound 0.316 µM)?
A: 169 nM

Q: What about the IC50 (second compound 1 µM) of the same compound?
A: 115 nM

Q: And the viability, T/C (second compound 0.01 µM, first compound 0.00949 µM)?
A: 101%

Q: What about the viability, T/C (second compound 0.01 µM, first compound 0.03 µM) of the same compound?
A: 114%

Q: And the viability, T/C (second compound 0.01 µM, first compound 0.0949 µM)?
A: 114%

Q: And the viability, T/C (second compound 0.01 µM, first compound 0.3 µM)?
A: 3.69%

Q: What about the viability, T/C (second compound 0.01 µM, first compound 0.949 µM) of the same compound?
A: 3.37%

Q: What about the viability, T/C (second compound 0.01 µM, first compound 3 µM) of the same compound?
A: 3.55%

Q: What about the viability, T/C (second compound 0.0316 µM, first compound 0.00949 µM) of the same compound?
A: 99%

Q: And the viability, T/C (second compound 0.0316 µM, first compound 0.03 µM)?
A: 113%

Q: What about the viability, T/C (second compound 0.0316 µM, first compound 0.0949 µM) of the same compound?
A: 118%

Q: What about the viability, T/C (second compound 0.0316 µM, first compound 0.3 µM) of the same compound?
A: 2.94%

Q: What about the viability, T/C (second compound 0.0316 µM, first compound 0.949 µM) of the same compound?
A: 2.55%

Q: What about the viability, T/C (second compound 0.0316 µM, first compound 3 µM) of the same compound?
A: 2.82%

Q: What about the viability, T/C (second compound 0.1 µM, first compound 0.00949 µM) of the same compound?
A: 100%

Q: What about the viability, T/C (second compound 0.1 µM, first compound 0.03 µM) of the same compound?
A: 99.9%

Q: What about the viability, T/C (second compound 0.1 µM, first compound 0.0949 µM) of the same compound?
A: 95.3%

Q: And the viability, T/C (second compound 0.1 µM, first compound 0.3 µM)?
A: 2.53%

Q: And the viability, T/C (second compound 0.1 µM, first compound 0.949 µM)?
A: 2.48%

Q: What about the viability, T/C (second compound 0.1 µM, first compound 3 µM) of the same compound?
A: 3.11%

Q: What about the viability, T/C (second compound 0.316 µM, first compound 0.00949 µM) of the same compound?
A: 104%

Q: And the viability, T/C (second compound 0.316 µM, first compound 0.03 µM)?
A: 104%

Q: What about the viability, T/C (second compound 0.316 µM, first compound 0.0949 µM) of the same compound?
A: 97.2%

Q: What about the viability, T/C (second compound 0.316 µM, first compound 0.3 µM) of the same compound?
A: 2.46%

Q: And the viability, T/C (second compound 0.316 µM, first compound 0.949 µM)?
A: 3.54%

Q: What about the viability, T/C (second compound 0.316 µM, first compound 3 µM) of the same compound?
A: 3.59%

Q: What about the viability, T/C (second compound 1 µM, first compound 0.00949 µM) of the same compound?
A: 109%

Q: What about the viability, T/C (second compound 1 µM, first compound 0.03 µM) of the same compound?
A: 107%

Q: What about the viability, T/C (second compound 1 µM, first compound 0.0949 µM) of the same compound?
A: 59.6%

Q: And the viability, T/C (second compound 1 µM, first compound 0.3 µM)?
A: 2.32%

Q: What about the viability, T/C (second compound 1 µM, first compound 0.949 µM) of the same compound?
A: 2.79%

Q: What about the viability, T/C (second compound 1 µM, first compound 3 µM) of the same compound?
A: 4.16%
